What was measured:
[1] = ref Meador et al. 18; cited from earlier work
[2] = for Cootes carp plasma, range of concentrations / wild goldfish plasma, range of concentrations: Cootes Paradise Marsh; for plasma concentration, CPM-C 01: Cootes carp 01, 2011, male; for plasma concentration, CPM-C 2: Cootes carp 2, Sep 27, 2011, male; for plasma concentration, CPM-C 10: Cootes carp 10, Sep 28, 2011, female; for plasma concentration, CPM-C 13: Cootes carp 13, Sep 28, 2011, female; for plasma concentration, CPM-C 20: Cootes carp 20, 2011, male; for plasma concentration, CPM-C 36: Cootes carp 36, Oct 3, 2011, female; for plasma concentration, carp, this study (mean) / plasma concentration, goldfish, this study (mean): Table S8; for plasma concentration, CPM wild-01: wild goldfish sample 01, 2012, wet weight; for plasma concentration, CPM wild-02: wild goldfish sample 02, 2012, wet weight; for plasma concentration, CPM wild-03: wild goldfish sample 03, 2012, wet weight
[3] = in vivo; settings: for concentration at 21 days: goldfish (Carassius auratus)
Summary of the method: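 Pooled caged-goldfish plasma, wild-fish plasma (2.3–2.5 g) and water samples were spiked with isotope-labelled surrogates, then extracted (acetonitrile sonication for plasma; pH-adjusted water) and cleaned up by HLB SPE. PPCPs were quantified by LC/ESI-MS/MS using isotope dilution. Non-detects were set to ½ DL when the analyte was detected in ≥2 samples.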

[4] = Jordan Harbour brown bullhead, wet weight
Method: Plasma from 9 individual male fish (500 µL/individual) was pooled to yield 3 samples for PPCP analysis. […] Plasma from 6 individual carp (2.3–3.5 g) from each location was selected for PPCP analysis. […] Plasma samples were frozen (−80 °C) until analysis.
A total of 20 fish plasma samples from the pooled caged fish (7) and the wild fish (13) along with 12 water samples were selected for analysis. […] A full list of analytes is provided in Supplementary Information. Mass labelled^13C-, or deuterated surrogate internal standards were used for quantification of all analytes via the isotope dilution/surrogate standard quantitation method. Prior to extraction and/or clean-up procedures, aqueous samples were adjusted to pH 2.0, spiked with extraction surrogate standards, then adjusted to pH 4 using tetrasodium ethylenediamine-tetraacetate dihydrate. Plasma samples (2.3–2.5 g) were spiked with extraction surrogate standards, sonicated with 20 mL acetonitrile, then diluted with ultra-pure water to 200 mL. The extracts were cleaned up by solid phase extraction using Oasis HLB cartridges (Waters Ltd. Mississauga ON), filtered, and analyzed by liquid chromatography-electrospray ionization-tandem mass spectrometry (LC/ESI-MS/MS) in positive or negative ionization mode. The analysis of the complete list of analytes (SI Table S1) required a total of five instrumental runs.

[5] = Plasma bioaccumulation factor (BAFP), goldfish; assay type: in vivo, goldfish (Carassius auratus)
Summary of the method: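 BAFP in goldfish was calculated as plasma concentration (ng/g × 1000) divided by water concentration (ng/L).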

[6] = cited from earlier work
[7] = parameters: method as in Brown et al. 11; settings: ref Brown et al. 11; cited from earlier work
[8] = human, ref Schulz et al.[56], cited from earlier work; for Therapeutic "normal" blood-plasma/serum concentration: converted from µg/mL
[9] = parameters: method as in US EPA Chemistry Dashboard; settings: ref US EPA Chemistry Dashboard; cited from earlier work
[10] = Plasma bioaccumulation factor (BAFP), carp; assay type: in vivo, carp (Cyprinus carpio)
Method: Bioaccumulation factor (BAFP) was calculated as concentration in fish plasma (ng/g × 1000) divided by concentration in water (ng/L). Two widely used modeling approaches for predicting organic contaminant bioaccumulation were assessed: the BCF-BAF model for whole body BAFs[53] and the fish-plasma concentration calculation of Huggett et al.[35] modified by Berninger et al.[54]. The latter involves estimating an octanol-water partition coefficient (Kow) adjusted for fraction ionized (log D), using the pKa value to adjust log Kow[54] taking into account the pH of CPM waters. Further information on the calculation of log D, blood-water partitioning (PBW), and plasma concentrations (FPC) is given in the SI.

[11] = parameters: method as in Moreno-González et al. 17; settings: mean ± SD; ref Moreno-González et al. 17; cited from earlier work
[12] = in vivo, plasma concentration, JH caged, Jordan Harbour reference site, 07-2014, pooled plasma, wet weight
[13] = conc in fish plasma/conc in water
[14] = range based on range of plasma concentrations

| Structure (SMILES) | Cootes carp plasma, range of concentrations [2] [ng/g] | wild goldfish plasma, range of concentrations [2] | plasma concentration, CPM-C 01 ([2]; wet weight) [ng/g] | plasma concentration, CPM-C 2 ([2]; wet weight) [ng/g] | plasma concentration, CPM-C 10 ([2]; wet weight) [ng/g] | plasma concentration, CPM-C 13 ([2]; wet weight) [ng/g] | plasma concentration, CPM-C 20 ([2]; wet weight) [ng/g] | plasma concentration, CPM-C 36 ([2]; wet weight) [ng/g] | plasma concentration, carp, this study (mean) [2] | plasma concentration, goldfish, this study (mean) [2] | plasma concentration, CPM wild-01 [2] [ng/g] | plasma concentration, CPM wild-02 [2] [ng/g] | plasma concentration, CPM wild-03 [2] [ng/g] | concentration at 21 days [3, 12] [ng/g] | Therapeutic "normal" blood-plasma/serum concentration [8] [ng/mL] | log Kow [9] | further results |
| --- | --- | --- | --- | --- | --- | --- | --- | --- | --- | --- | --- | --- | --- | --- | --- | --- | --- |
| Cc1ccc(C)c(OCCCC(C)(C)C(=O)O)c1 [Gemfibrozil] | 0.16 to 0.83 | 0.15–0.15 ng/g | 0.158 | 0.724 | 0.227 | 0.234 | 0.162 | 0.827 | 0.39 ng/g wet weight or ng/mL for plasma | 0.46 ng/g wet weight or ng/mL for plasma | 0.147 | 0.387 | 0.86 | < 0.3 | ~25000 | 4.14 | whole fish concentration, sculpin [1]: < mdl; Carp plasma concentration, this study (range) ([2]; Table S7): 0.16 to 0.83 ng/g; Goldfish plasma concentration, this study (range) ([2]; Table S7): 0.15 to 0.86 ng/g; plasma concentration, CPM1 caged ([3]; CPM1, 07-2014, pooled plasma, wet weight): 0.15 ng/g; plasma concentration, CPM3 caged ([3]; CPM3, 07-2014, pooled plasma, wet weight): 0.15 ng/g; concentration at 21 days ([3]; plasma, caged goldfish plasma, range of concentrations, Cootes Paradise Marsh, range): 0.15 to 0.86 ng/g; concentration at 21 days ([3]; plasma, plasma concentration, CPM1 caged, CPM1, 07-2014, pooled plasma, wet weight): 0.147 ng/g; concentration at 21 days ([3]; plasma, plasma concentration, CPM2 caged, CPM2, 07-2014, pooled plasma, wet weight): 0.146 ng/g; concentration at 21 days ([3]; plasma, plasma concentration, CPM3 caged, CPM3, 07-2014, pooled plasma, wet weight): 0.154 ng/g; plasma concentration, JH-BB [4]: < 0.57 ng/g; BAFP, CPM2 goldfish caged ([5]; CPM2, water sample of August 2012): 27 L/kg; Salmon (whole body) concentration ([6]; Table S7, ref Meador et al. (2016)): 1.3 ng/g; whole fish concentration, salmon ([6]; ref Meador et al. 18): 1.3 ng/g wet weight or ng/mL for plasma; plasma concentration, rainbow trout [7]: <8-210 ng/g wet weight or ng/mL for plasma |
| COc1ccc(C(CN(C)C)C2(O)CCCCC2)cc1 (stereo not shown) [Venlafaxine] | 0.04 to 0.27 | 0.04 to 0.17 ng/g | 0.042 | 0.086 | 0.061 | 0.063 | 0.268 | 0.057 | 0.10 ng/g wet weight or ng/mL for plasma | 0.11 ng/g wet weight or ng/mL for plasma | 0.039 | 0.258 | 0.042 | < 0.08 | 100 to 400 | 3.28 | BAFP at JH, carp, average ([10]; Jordan Harbour): 64 L/kg; BAFP at CPM3, carp, average [10, 13]: 12 L/kg; BAFP at CPM3, carp, range [10, 14]: 5 to 32 L/kg; plasma concentration, JH-C 54 ([2]; Jordan Harbour carp 54, Nov 7, 2011, male, wet weight): 0.042 ng/g; plasma concentration, JH-C 73 ([2]; Jordan Harbour carp 73, Nov 7, 2011, female, wet weight): 0.041 ng/g; plasma concentration, JH-C 74 ([2]; Jordan Harbour carp 74, Nov 7, 2011, male, wet weight): 0.043 ng/g; plasma concentration, JH-C 75 ([2]; Jordan Harbour carp 75, Nov 7, 2011, female, wet weight): 0.060 ng/g; plasma concentration, JH-C 82 ([2]; Jordan Harbour carp 82, Nov 7, 2011, female, wet weight): 0.040 ng/g; concentration at 21 days ([3]; in vivo, caged goldfish plasma, range of concentrations, Cootes Paradise Marsh, range): 0.04 to 0.26 ng/g; concentration at 21 days ([3]; in vivo, plasma concentration, CPM1 caged, CPM1, 07-2014, pooled plasma, wet weight): 0.165 ng/g; concentration at 21 days ([3]; in vivo, plasma concentration, CPM2 caged, CPM2, 07-2014, pooled plasma, wet weight): 0.039 ng/g; concentration at 21 days ([3]; in vivo, plasma concentration, CPM3 caged, CPM3, 07-2014, pooled plasma, wet weight): 0.041 ng/g; BAFP, CPM1 goldfish caged ([5]; CPM1): 3 L/kg; BAFP, CPM3 goldfish caged ([5]; CPM3): 52 L/kg; BAFP at CPM3, wild goldfish, average [5, 13]: 14 L/kg; BAFP at CPM3, wild goldfish, range [5, 14]: 5 to 31 L/kg; toxic dose (toxic blood-plasma/serum concentration) [8]: 1000 to 1500 ng/mL; liver & muscle concentration, mullet [11]: 0.68 ± 1.3 ng/g wet weight or ng/mL for plasma |
